The record followed here is patent US6855519B2, “Methods for enhancing the production of interferon in cell culture” (The Regents of the University of California, priority 1995, dated 2005).

Common to all, as to type: cell-based
Data set [1] concerns U937-PKR+ cells. In words: Interferon induction in U937-PKR+ cells (IFN assay of culture supernatants). On the procedure: (§1) FIG. 2. Interferon induction in U937-PKR+ cells and control U937-neo cells. U937-PKR+ cells and U937-neo cells (0.5×10^6/ml) were cultured in RPMI 1640 medium, supplemented with 5% fetal bovine serum. The cells were pretreated (“primed”) with or without 10 nM PMA for 20 hrs followed by induction with 10 μg/ml poly r(I):poly r(C) or with 0.1 TCID50/cell EMCV for 20 hrs. Twenty-four hours after induction, culture supernatants were collected and assayed for IFN-α. The open bars indicate U937-neo cells, the hatched bars indicate U937-PKR+ cells. The experimental groups indicate different treatments: 1-no treatment; 2-poly r(I):poly r(C) induction alone; 3-EMCV induction alone; 4-PMA priming alone; 5-PMA priming and poly r(I):poly r(C) induction; 6-PMA priming and EMCV induction.
(§2) The levels of IFN-α in the preparations can be determined by titrating for antiviral activity on L929 (murine fibroblast) cells against National Institute of Allergy and Infectious Diseases reference standard G-023-901-527 (Lau et al. J. Clin. Invest. 82:1415-1421 1988). In this technique, 5×10^4 L929 cells are seeded into each well of 96-well microtiter plates and then incubated with two-fold serial dilutions of culture supernatants for 16 hr. The cells are subsequently challenged with EMCV or Sendai virus (0.1 or 0.01 TCID per cell). Virus-induced cytopathic effects were assessed by microscopic examination and by staining cells with 0.1% crystal violet in 5% ethanol solutions. The IFN titer is defined as the reciprocal of the highest dilution of culture supernatants capable of protecting 50% of the cells from viral-induced cytopathic effects.
U937-PKR+ cells and U937-neo cells were cultured in RPMI 1640 medium, supplemented with fetal bovine serum. The cells were pretreated with or without phorbol myristate acetate (PMA) (10 nM) for 20 hr and with or without subsequent stimulation by poly r(I):r(C), 10 ug/ml, for 20 hr. Twenty-four hr after the stimulation with poly r(I):r(C), culture supernatants were collected for IFN assays.

Data set [2] has as its system U937-PKR+ cells. Kind of data set: Trypan blue exclusion viability assay following induction. The text has this:
Following induction by poly r(I):poly r(C), the U937-PKR+ cells were examined for viability using a trypan blue exclusion assay. […] Thus, the U937-PKR+ cells can be recycled for continuous production of IFN.

Another data set has as its system U937-neo cells. Kind of data set: Interferon induction in control U937-neo cells (IFN assay of culture supernatants). Particulars: inducer 10 μg/ml for 20 hr, either with or without 10 nM PMA priming. Here is the method: as §1
as §2, with “The cells are subsequently challenged with EMCV or Sendai virus (0.1 or 0.01 TCID per cell).” left out, “The IFN titer is defined as the reciprocal of the highest dilution of culture supernatants capable of protecting 50% of the cells from viral-induced cytopathic effects.” left out

As for `CCCCCCCCCCCCCC(=O)O[C@@H]1[C@@H](C)[C@@]2(O)[C@@H](C=C(CO)C[C@]3(O)C(=O)C(C)=C[C@@H]23)[C@@H]2C(C)(C)[C@]12OC(C)=O` [PMA, phorbol myristate acetate], the IFN production entry with U937-PKR+ cells [1] (PMA priming alone, no EMCV or poly r(I):poly r(C) inducer, compared with U937-neo cells) is “higher levels of IFNs than did U937-neo cells”.
Take poly r(I):poly r(C): in the data set with U937-PKR+ cells [1] (inducer 10 μg/ml for 20 hr, with or without 10 nM PMA priming), the IFN production result is “increased IFN production”. The compound also showed an IFN level with U937-PKR+ cells [1] (with 10 nM PMA priming 20 hr, then induction) of 4000 U/ml. Moreover, the viable cells entry with U937-PKR+ cells [2] is “more than 95%”. Further, the IFN-α synthesis entry in the data set on U937-neo cells is “minimal synthesis of IFN-α”.
